# Data taken from ChEMBL document CHEMBL1128080, “Structural Factors affecting the kinetics of O,N-acyl transfer in potential O-peptide prodrugs” (Bioorg Med Chem Lett, 1995).
# Test: Half-life for the conversion of compound to the corresponding N-peptide under pseudo physiological conditions (0.04 M phosphate, pH 7.4 and 37 degree C)
# Assay type: ADME
# Details: phosphate buffer
row,half-life [h],Compound
1,1.58,CCC(NC(=O)C(NC)C(OC(=O)C(NC(=O)OCc1ccccc1)C(C)C)C(C)C)C(=O)NCCc1ccc(OC)c(OC)c1 (stereo not drawn)
2,0.0667,CCC(NC(=O)C(N)C(OC(=O)C(NC(=O)OCc1ccccc1)C(C)C)C(C)C)C(=O)NCCc1ccc(OC)c(OC)c1 (stereo not drawn)
3,6.17,CNC1C(=O)NCCCCN(C)C(C(C)C)C(=O)OC1C(C)C (stereo not drawn)
